Laboratory results: US4539208A, “Combination of thienamycin-type antibiotics with dipeptidase inhibitors” (Merck & Co., Inc., priority 1981, dated 1985)

What was measured:
in vivo = assay: in vivo; design: species or system dog (male beagle); details: dog, iv, 5 mg/kg
Procedure: A male beagle was used for a study of the effect of dipeptidase inhibitors on the urinary recovery of N-formimidoyl thienamycin. In a control study, the dog was given 5 mg/kg IV of the N-formimidoyl thienamycin without inhibitor. A second experiment used the same amount of N-formimidoylthienamycin, but also administered Z-2-isovaleramido-2-butenoic acid in 3 doses, each providing 20 mg/kg of the compound. The first dose was administered just after injection of the N-formimidoylthienamycin, the second at 40 min. and the third at 60 min. […]

Staphalococcus aureus = assay: Systemic efficacy of thienamycin with co-administered inhibitor, Staphylococcus aureus infection in mouse; type: in vivo
[1] = Urinary recovery of thienamycin co-administered with dipeptidase inhibitor in the mouse; type: in vivo, mouse (Charles River CD, female); details: urine, iv, Table II, control, thienamycin 10 mg/kg alone
Procedure: In addition to this in vitro screen procedure, an in vivo screen was followed to measure the test compound's ability to inhibit metabolism as reflected by increase in urinary recovery of thienamycin from the mouse. The procedure involves co-administration of the test compound by the intravenous or subcutaneous route at a dose-rate of 10-100 mg/kg, with 10 mg/kg thienamycin. Thienamycin recovery in the urine over a 4 hour period is then compared with its recovery in a control group to which test compound was not co-administered.
Urinary recovery of thienamycin was measured in all cases with the use of a cylinder or disc diffusion assay, conducted in a manner described in U.S. Pat. No. 3,950,357. This bioassay, with Staphylococcus aureus ATCC 6538 as the test organism, has a useful response range from 0.04 μg/ml to 3.0 μg/ml.
An in vivo assay on the mouse was conducted as follows: 20 g Charles River CD, female mice were injected subcutaneously with the chosen dose of the chemical inhibitor. About two minutes later, the dose of thienamycin was given intravenously. A control of thienamycin above was also conducted. The level of thienamycin in the urine as a % of dose was measured using a bioassay technique. The two test compound numbers are those from Table I. Compound 7 is Z-2-isovaleramido-2-butenoicacid; compound 10 is Z-2-cyclopropylcarboxamido-2-butenoic acid. […]

dose excreted at 3 h (in vivo) | dose excreted at 4 h [1] | SMILES | ED50 (Staphalococcus aureus; THM +100 mg/kg inhibitor (Z-2-isovaleramido-2-butenoic acid)) | ED50 (Staphalococcus aureus; THM alone)
7.8% |  | C[C@@H](O)[C@H]1C(=O)N2C(C(=O)O)=C(SCCN=CN)C[C@H]12 [N-formimidoyl thienamycin, N-Formimidoyl thienamycin] |  | 
 | 25 to 30% | C[C@@H](O)[C@H]1C(=O)N2C(C(=O)O)=C(SCCN)C[C@H]12 [Thienamycin] | 0.06 mg/kg | 0.2 mg/kg
